The conditions of series [1]: cited from earlier work.
The conditions of series [2]: in man; cited from earlier work.
Series [3] can be described thus: 3D angiographic MRI colonography in healthy volunteers after intravenous injection. It is filed as in vivo, human. From the text:
Description of method of acquisition of MRI images of the luminal part of the colon using the three-dimensional angiography technique in healthy volunteers after intravenous injection of MultiHance™ (Gd-BOPTA meglumine salt).
A three-dimensional angiographic imaging technique was used because it provides advantageous visualisation of large regions of the anatomy, especially when associated with administration of contrast agents which are particularly effective in reducing the T1 relaxation times in standard MRI investigations.
In the trial conducted, the increased contrast in the hepatobiliary system and the gastrointestinal system was obtained with this kind of diagnostic technique, which produced up to 42 images of a three-dimensional volume measuring 40×32×12 cm in a single breath-hold.
(§1) The trial was conducted in six healthy volunteers aged between 22 and 29 years. The contrast agent used was Gd-BOPTA meglumine salt (MultiHance™), administered intravenously at a dose of 0.1 mmol/kg of body weight. The successive recording of images of the abdomen was performed 1, 12, 24, 36, 48, 70 and 105 hours after administration of the agent using the following 3D angio-sequence: 3D FLASH; TR 4.6 ms; TE 1.8 ms; α 50° C.; rect. FOV 390 mm (6/8); Ma: 215×512; acq 28 s; slab thickness 120 mm; 42 sections. Three volunteers were re-tested 14 days after administration of the agent.
(§2) T1-weighted axial images of the liver and abdomen were recorded in addition to the 3D angio-sequences referred to above.
(§3) The visualisation procedure was conducted with an MRI scanner operating at 1.5 Tesla (Magneton Vision Plus, Siemens Medical Systems, Erlangen, Germany) equipped with a phased array body coil.
The images were processed with standard MIP software on a dedicated 3D MR workstation (Virtuoso, Siemens Medical System).
No preparation, medication or joint administration of other drugs or other contrast media was performed on the volunteers studied.

Series [4] in a line: MRI signal intensity over time in liver parenchyma, healthy volunteers. It is filed as in vivo, human. The settings on record: average of six healthy volunteers, 0.1 mmol/kg i.v., FIG. 1. The protocol:
as §1, §2, §3
(§4) Before performing colonography, it was possible to investigate liver function by recording the signal intensity in the liver parenchyma and gall bladder in the first few hours after administration of the contrast agent. […] This seems to be the ideal period for recording three-dimensional MRI colonography.

Series [5] in a line: MRI signal intensity over time in gall bladder, healthy volunteers. It is filed as in vivo, human. Here is the method: as §1, §2, §3, §4

The values that follow come from US20030113267A1, “Colon contrast enhanced imaging” (priority 1999, published 2003).

In the case of `CNC[C@H](O)[C@@H](O)[C@H](O)[C@H](O)CO.CNC[C@H](O)[C@@H](O)[C@H](O)[C@H](O)CO.O=C([O-])CN(CCN(CC(=O)[O-])CC(=O)O)CCN(CC(=O)O)C(COCc1ccccc1)C(=O)[O-].[Gd+3]` (centres unmarked) [MultiHance, gadobenate dimeglumine], the solubility in water result in series [1] was “soluble in water”. In series [2], the “proportion excreted by the biliary route” value is on record as 2-4%. Moreover, in series [3] (0.1 mmol/kg i.v.), the “time after which a partial increase of intraluminal signal was still detectable” value came out at 8 days. Further, the “homogeneity of contrast in the lumen” value in series [3] (0.1 mmol/kg i.v., faeces present, no preparation) was “homogenous contrast in the lumen”. Moreover, the “signal in the colon, 3D MR colonography” value in series [3] (24 hours after injection of 0.1 mmol/kg BW, no bowel preparation, FIG. 2) is “Homogenous signal can be seen in all segments of the colon”. The “time to intense increase in intraluminal contrast after administration” value in series [3] (all six healthy volunteers, 0.1 mmol/kg i.v., no bowel preparation) was at most 24 h. Further, the “time after administration at which an intense intraluminal signal was still detected in the colon” value in series [3] (in some patients, 0.1 mmol/kg i.v.) is at most 100 h. Moreover, in series [3] (intravenous administration, contrast recorded in the colon), the “intraluminal contrast after intravenous administration” value is given as “substantial increase in intraluminal contrast”. Further, the “time for signal intensity to be halved in liver parenchyma” value in series [4] is at most 10 h. For the same molecule, in series [5] (24 hours after injection of 0.1 mmol/kg BW, FIG. 2), the “enhancement within the gallbladder” value is given as “still intense enhancement”. For the same molecule, in series [5] (average of six healthy volunteers, 0.1 mmol/kg i.v., FIG. 1), the “half-life of signal intensity in gall bladder” value was determined as 15 h.
